In paper PMC5011342, “A high throughput drug screening assay to identify compounds that promote oligodendrocyte differentiation using acutely dissociated and purified oligodendrocyte precursor cells” (BMC Research Notes, 2016):
Read-outs that look alike come from different tables or passages of the source.

Legend:
[1] = test system: acutely dissociated and purified rat OPCs; experiment: Acute OL differentiation assay (MBP expression/cell, immunofluorescent image quantification); assay type: cell-based; conditions: Rattus norvegicus
Description: In order to identify compounds with the potential to promote OL differentiation in vivo and thereby enhance remyelination, we first wanted to establish an in vitro assay system that would closely mimic conditions in vivo. To do this, we started by using OPCs acutely isolated from postnatal day 6–7 (P6–7) rat brains by O4 immunopanning. […] OPCs were plated directly onto a biological substrate (PDL/laminin) in 96-well view plates at moderate density to allow for sufficient room to expand processes during differentiation. We plated cells in serum-free medium lacking OPC mitogens (no PDGF or FGF) to allow a basal level of OL differentiation to commence, and as a positive control added thyroid hormone (T3, 40 ng/ml) to accelerate differentiation (Fig. 1, flow scheme).
Fig. 1 Flow scheme of the acute OL differentiation assay. a Purified oligodendrocyte precursor cells (OPCs) were cultured from P7 rat cortex and plated into PDL/laminin pre-coated 96-well plates. b One hour later test compounds were added. c OPC cultures with compound were maintained in culture for an additional 4 days. d On the 5th day with compound, cells were fixed and immunostained with anti-MBP antibodies and DAPI. e Images were acquired with automated fluorescence microscopy and scored phenotypically for OL differentiation (see “Methods” section)
To quantify the extent of OL differentiation occurring in treatment conditions, we measured the overall amount of MBP expression/cell (see “Methods” section). Figure 2a depicts the mask created over MBP staining under which the MBP expression was quantified. […]
All animal work was carried out in strict accordance with the recommendations in the Guide for the Care and Use of Laboratory Animals of the National Institutes of Health. The protocol was approved by the Institutional Use and Care and Use Committee at the Molecular Medicine Research Institute (Sunnyvale, CA). Animals used for OPC isolation in these studies were euthanized by decapitation. OPCs from brains of P6-P7 Sprague–Dawley rat pups (Charles River, Wilmington, MA, USA) were enriched by immunopanning as previously described (Dugas et al. 2006). Briefly, single cell suspensions were obtained from papain-digested neonatal brains and depleted of mature glial cells by successive panning with RAN-2- and GalC-coated plates, followed by enrichment for OPCs using O4-coated plates. OPCs were plated in differentiation media (DMEM, 100 U/ml Penicillin/100 µg/ml streptomycin, 2 mM L-glutamine, 1 mM Na pyruvate, 5 µg/ml insulin, 5 µg/ml N-acetyl-L-cysteine, 1× trace elements B,10 ng/ml d-Biotin, 100 µg/ml BSA, 100 µg/ml apo-transferrin, 16 µg/ml putrescine, 60 ng/ml progesterone, 40 ng/ml sodium selenite 5 ng/ml forskolin, 10 ng/ml CNTF, 1 ng/ml NT-3).
Acutely enriched OPCs were plated in differentiation media at 5000 cells/well into PDL/laminin coated 96-well view plates and centrifuged at 200×g to facilitate cell attachment, survival, and even distribution of OPCs. OPCs were pre-incubated for 1–2 h at 37 °C in 10 % CO2, followed by the addition of test compounds in quadruplicate. Controls were added in eight replicate wells, negative control = 0.1 % DMSO; positive control = 40 ng/ml T3. The day of OPC plating was considered DIV0. On DIV4, cells were fixed, immunostained for myelin basic protein (MBP) expression, imaged and quantified as described below.

[2] = test system: expanded OPCs; experiment: cells; conditions: for viability at 0.1 µM / viability at 1 µM / viability at 10 µM: Rattus norvegicus, 72 h; for 0.1 µM (% DMSO) / 1 µM (% DMSO) / 10 µM (% DMSO): alamarBlue viability of expanded OPCs, relative to DMSO control; for 0.1 µM (% DMSO): compound at 0.1 µM; for 1 µM (% DMSO): compound at 1 µM; for 10 µM (% DMSO): compound at 10 µM
Description: Having established a consistent assay for measuring OL differentiation in vitro, the next step was to utilize this assay to assess the ability of a wide array of compounds to promote OL differentiation. Prior to library screening, we first established the maximum non-toxic dose of each compound in the library. […] Therefore, we added each compound in the NIH clinical collection (NCC) library to OPCs at 10, 1, and 0.1 µM concentrations. Three days later, we assessed viability of the treated cells by measuring AlamarBlue fluorescence, a measure of cell viability (see “Methods” section). […] Appropriately, we established three sets of screening concentrations for library compounds: non-toxic compounds were tested at 10 and 2 µM, slightly toxic compounds (only toxic at 10 µM) were tested at 2 and 0.4 µM, and very toxic compounds were tested at 0.4 and 0.08 µM.
OPCs were expanded in vitro by seeding into PDL-coated tissue culture flasks at 1000–2000 cells/cm^2 in differentiation media supplemented with 10 ng/ml PDGF-AA. Proliferating OPCs were fed every 2–3 days and supplemented with 2–3× concentration of PDGF as needed to prevent OPC differentiation. After 6–7 days of proliferation, OPCs were harvested by trypsinization, plated into PDL-coated 96-well Falcon plates and centrifuged at 200×g to facilitate cell attachment, survival, and even distribution of cells. Expanded OPCs were seeded in differentiation media at 10,000 cells/well and incubated for 2 h at 37 °C, 10 % CO2 prior to addition of compounds. The NCC library was diluted and added to cells at 10, 1, and 0.1 µM; each concentration was tested in quadruplicate. As a positive control for the induction of toxicity, 5 ng/ml tunicamycin was added to 8 wells in each plate. Three days later, a 1:10 dilution of alamarBlue® (AB) was added to each well and cells were incubated 4 h at 37 °C, 10 % CO2. AB fluorescence was measured using a PerkinElmer Victor II fluorescence microplate reader (PerkinElmer, Waltham, MA) with 560 nm excitation/590 nm emission filters. For library screening, the highest concentration of each compound was adjusted to a minimally toxic concentration based on this toxicity data. Compounds were additionally tested at a second concentration that was 1/5th of the top concentration. The final concentration of DMSO in each well was 0.1 %.

[3] = test compound at 2 uM, NCC library screen, sheet "All OLga data", relative to quetiapine, read-out: 2 uM (% Quet)
[4] = test compound at 10 uM, NCC library screen, sheet "All OLga data", relative to quetiapine, read-out: 10 uM (% Quet)
[5] = read-out: 0.1 µM (% DMSO), alamarBlue viability, NCC library compound at 0.1 µM, sheet "All Tox data"
[6] = read-out: 1 µM (% DMSO), alamarBlue viability, NCC library compound at 1 µM, sheet "All Tox data"
[7] = read-out: 10 µM (% DMSO), alamarBlue viability, NCC library compound at 10 µM, sheet "All Tox data"
[8] = 2 uM test compound, relative to quetiapine, sheet "All OLga data", read-out: OL differentiation, 2 uM (% Quet)
[9] = 10 uM test compound, relative to quetiapine, sheet "All OLga data", read-out: OL differentiation, 10 uM (% Quet)
[10] = test compound at 2 uM, MBP expression relative to quetiapine, NCC library screen, sheet "All OLga data", read-out: 2 uM (% Quet)
[11] = test compound at 10 uM, MBP expression relative to quetiapine, NCC library screen, sheet "All OLga data", read-out: 10 uM (% Quet)

Structure (SMILES) | activation at 2 µM [1, 3] | activation at 10 µM [1, 4] | viability at 0.1 µM [2, 5] | viability at 1 µM [2, 6] | viability at 10 µM [2, 7] | 0.1 µM (% DMSO) [2] | 1 µM (% DMSO) [2] | 10 µM (% DMSO) [2] | other results
CC1(C)S[C@@H]2[C@H](NC(=O)Cc3ccccc3)C(=O)N2[C@H]1C(=O)O [Penicillin G] | -9.8% | 1.4% | 107% | 102% | 114% | – | – | – | –
CN1C(=O)CN=C(c2ccccc2)c2cc([N+](=O)[O-])ccc21 [Nimetazepam] | – | – | 89.5% | 82.8% | 81.8% | – | – | – | activation at 2 µM [1, 8]: 6.5%; activation at 10 µM [1, 9]: -0.15%
CC(C)NCC(O)c1ccc(O)c(O)c1 (stereo not shown) [Isoproterenol] | -19.5% | -148% | – | – | – | 95.1 % DMSO | 94.6 % DMSO | 67.7 % DMSO | –
CCN(CC)CCOC(=O)c1ccc(N)cc1 [Procaine] | -5.2% | 7.7% | 121% | 145% | 146% | – | – | – | –
c1ccc(CC2=NCCN2)cc1 [Tolazoline] | – | – | – | – | – | 90.4 % DMSO | 94.2 % DMSO | 86.6 % DMSO | activation at 2 µM [1, 10]: -2.4%; activation at 10 µM [1, 11]: -19.3%
CCCSc1ccc2nc(NC(=O)OC)[nH]c2c1 [Albendazole] | – | – | – | – | – | 55.7 % DMSO | 57.4 % DMSO | 58.6 % DMSO | activation at 0.4 µM ([1]; read-out: 0.4 uM (% Quet)): -27.1%; activation at 2 µM ([1]; read-out: 2 uM (% Quet)): -112%
C[C@]12CC[C@@H]3c4ccc(O)cc4CC[C@H]3[C@@H]1CC[C@@H]2O [Estradiol] | – | – | – | – | – | – | – | – | activation at 2 µM [1, 8]: 15.2%; activation at 10 µM [1, 9]: 32.1%; viability at 0.1 µM ([2]; read-out: 0.1 µM (% DMSO), alamarBlue viability of expanded OPCs, compound at 0.1 µM, sheet All Tox data): 81.2%; viability at 1 µM ([2]; read-out: 1 µM (% DMSO), alamarBlue viability of expanded OPCs, compound at 1 µM, sheet All Tox data): 75.5%; viability at 10 µM ([2]; read-out: 10 µM (% DMSO), alamarBlue viability of expanded OPCs, compound at 10 µM, sheet All Tox data): 64.6%
CC1(C)S[C@@H]2[C@H](NC(=O)[C@H](N)c3ccc(O)cc3)C(=O)N2[C@H]1C(=O)O [Amoxicillin] | – | – | – | – | – | 93.8 % DMSO | 104.4 % DMSO | 96.1 % DMSO | activation at 2 µM [1, 10]: 17.9%; activation at 10 µM [1, 11]: -7%
